Laboratory results as given in patent EP0417840B1, “Antiviral tetrahydroimidazo [1,4]-benzodiazepines” (JANSSEN PHARMACEUTICA N.V., priority 1989, dated 1991).
Values after ≈ are worked out from the molar mass of the structure shown.

Tests used:
[1] = in vitro; type: cell-based; details: human, mt-4 cells
Procedure: (§1) A rapid, sensitive and automated assay procedure was used for the in-vitro evaluation of anti-HIV agents. An […] T4-cell line, MT-4, which was previously shown (Koyanagi et al., Int. J. Cancer, 36, 445-451, 1985) to be highly susceptible to and permissive for HIV infection, served as the target cell line. Inhibition of the HIV-induced cytopathic effect was used as the end point. The viability of both HIV- and mock-infected cells was assessed spectrophotometrically via the in-situ reduction of 3-(4,5-dimethylthiazol-2-yl)-2,5-diphenyltetrazolium bromide (MTT). The 50% cytotoxic dose (CD₅₀ in µg/ml) was defined as the concentration of compound that reduced the absorbance of the mock-infected control sample by 50%. The percent protection achieved by the compound in HIV-infected cells was calculated by the following formula: [formula] whereby (ODT)HIV is the optical density measured with a given concentration of the test compound in HIV-infected cells; (ODC)HIV is the optical density measured for the control untreated HIV-infected cells; (ODC)MOCK is the optical density measured for the control untreated mock-infected cells; all optical density values were determined at 540 nm. The dose achieving 50% protection according to the above formula was defined as the 50% effective dose (ED₅₀ in µg/ml). The ratio of CD₅₀ to ED₅₀ was defined as the selectivity index (SI).

[2] = tested on: HIV; test: Anti-HIV assay: inhibition of the HIV-induced cytopathic effect in MT-4 cells (MTT); type: cell-based; details: for EC50: Human immunodeficiency virus 1, MT4, dose achieving 50% protection of HIV-infected MT-4 cells, MTT, 540 nm, read-out: ED₅₀ (50% effective dose); for SI (selectivity index): ratio of CD₅₀ to ED₅₀
Procedure: as §1

| Compound | CC50 [1] [µg/mL] | EC50 [2] [µg/mL] | SI (selectivity index) [2] |
| --- | --- | --- | --- |
| CC(C)=CCN1CCn2c(=S)[nH]c3cccc(c32)C1C (stereo not drawn) [Compound 3] | 177 (≈ 616 µM) | 0.1 (≈ 0.348 µM) | 1770 |
| CC(C)=CCN1[C@H](C)Cn2c(=S)[nH]c3cccc(c32)[C@H]1C (relative stereo) [Compound 6, trans-4,5,6,7-tetrahydro-5,7-dimethyl-6-(3-methyl-2-butenyl)imidazo[4,5,1-jk][1,4]benzodiazepine-2(1H)-thione] | 23 (≈ 76.3 µM) | 0.0048 (≈ 0.0159 µM) | 4838 |
| CCCN1CCn2c(=S)[nH]c3cccc(c32)C1C (stereo not drawn) [Compound 2, 4,5,6,7-tetrahydro-7-methyl-6-propylimidazo[4,5,1-jk] [1,4]benzodiazepin-2(1H)-thione] | 129 (≈ 494 µM) | 0.5 (≈ 1.91 µM) | 258 |
| CC(C)=CCN1[C@H](C)Cn2c(=S)[nH]c3cccc(c32)[C@@H]1C (relative stereo) [Compound 5, cis-4,5,6,7-tetrahydro-5,7-dimethyl-6-(3-methyl-2-butenyl)imidazo[4,5,1-jk][1,4]benzodiazepine-2(1H)thione] | 23 (≈ 76.3 µM) | 0.24 (≈ 0.796 µM) | 96 |
